Data: ChEMBL document CHEMBL3045017, “Responses of Spodoptera littoralis larvae to Tunisian plant extracts and to neo-clerodane diterpenoids isolated from Ajuga pseudoiva leaves” (2000)

What was measured:
Type in all cases: functional
Spodoptera littoralis [1] = test: Antifeedant activity against final stage larvae of Spodoptera littoralis at 1 mg/l after 8 to 24 hr
Spodoptera littoralis [2] = test: Antifeedant activity against final stage larvae of Spodoptera littoralis at 0.1 mg/l after 8 to 24 hr
Spodoptera littoralis [3] = test: Antifeedant activity against final stage larvae of Spodoptera littoralis at 10 mg/l after 8 to 24 hr
Spodoptera littoralis [4] = test: Antifeedant activity against final stage larvae of Spodoptera littoralis at 100 mg/l after 8 to 24 hr

Row | Compound | AFI (Spodoptera littoralis [1]) [%] | AFI (Spodoptera littoralis [2]) [%] | AFI (Spodoptera littoralis [3]) [%] | AFI (Spodoptera littoralis [4]) [%]
1 | CC[C@H](C)C(=O)O[C@H]1[C@H](O)C[C@@H]2[C@@](C)([C@@H]3C[C@H]4CCO[C@H]4O3)[C@H](C)C[C@H](OC(C)=O)[C@@]2(COC(C)=O)[C@@]12CO2 [14,15-DIHYDROAJUGAPITIN] | 92.6 | 65.9 | 100 | 100
2 | CO[C@H]1C[C@@H]2C[C@@H]([C@@]3(C)[C@H](C)C[C@H](OC(C)=O)[C@]4(COC(C)=O)[C@@H]3C[C@@H](O)[C@H](OC(=O)C(C)C)[C@]43CO3)O[C@@H]2O1 [HATIVENE A] | 63.3 | 37.3 | 100 | 100
3 | CO[C@@H]1C[C@@H]2C[C@@H]([C@@]3(C)[C@H](C)C[C@H](OC(C)=O)[C@]4(COC(C)=O)[C@@H]3C[C@@H](O)[C@H](OC(=O)C(C)C)[C@]43CO3)O[C@@H]2O1 [HATIVENE B] | 69 | 41.2 | 100 | 100
4 | CO[C@@H]1C[C@@H]2C[C@@H]([C@@]3(C)[C@H](C)C[C@H](OC(C)=O)[C@]4(COC(C)=O)[C@@H]3C[C@H](O)[C@H](OC(=O)C(C)C)[C@]43CO3)O[C@@H]2O1 [HATIVENE C] | 63.3 | 42.7 | 100 | 100
5 | CC[C@@H](C)C(=O)O[C@H]1[C@H](O)C[C@@H]2[C@@](C)([C@@H]3C[C@H]4C[C@@H](OC)O[C@H]4O3)[C@H](C)C[C@H](OC(C)=O)[C@@]2(COC(C)=O)[C@@]12CO2 [LUPULIN A] | 74.5 | 45 | 100 | 100
